Results as given in patent publication US12350270B2, “Antimalarial agents” (Merck Sharp & Dohme LLC, priority 2019, dated 2025).
pEC50: −log10 of the molar value.

Tested on: parasites (ring stage, in human red blood cell culture)
Experiment: Parasite LDH growth assay (antiparasite potency, Parasite Assay)
Type: cell-based, Plasmodium falciparum
Details: 0.7% rings, 2% haematocrit, 72 hours at 37° C., LDH readout of parasite growth
How it was run: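 Ring-stage parasites at 0.7% parasitemia and 2% haematocrit, in RPMI-Hepes/bicarbonate with 5% heat-inactivated human serum and 0.5% albumax, were added to compound-containing medium. Cultures grew 72 h at 37 °C in gassed humidified boxes. Plates were then frozen overnight at −80 °C, thawed 4 h, and growth was measured by LDH assay.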

**Q.** How did the pEC50 turn out when CC(C)[C@]1(C)CC(=O)N([C@@H]2CC(C)(C)Oc3ccc(C(=O)N[C@@H]4c5ccccc5OC[C@H]4O)cc32)C(=N)N1 [Example 40A, (R)-N-((3S,4R)-3-hydroxychroman-4-yl)-4-((S)-2-imino-4-isopropyl-4-methyl-6-oxotetrahydropyrimidin-1(2H)-yl)-2,2-dimethylchromane-6-carboxamide] was run?
**A.** 7.16

**Q.** With CC(C)[C@]1(C)CC(=O)N([C@@H]2CC(C)(C)Oc3ccc(C(=O)N[C@@H]4c5ccccc5OC[C@H]4O)cc32)C(=N)N1 [Example 45A, (R)-N-((3S,4R)-3-hydroxychroman-4-yl)-4-((S)-2-imino-4-isopropyl-4-methyl-6-oxotetrahydropyrimidin-1(2H)-yl)-2,2-dimethylchromane-6-carboxamide] as the compound, how does the pEC50 read?
**A.** 8.59

**Q.** How did the pEC50 turn out when CCC1(CC)CC(=O)N([C@@H]2CC(C)(C)Oc3ccc(C(=O)N[C@@H]4c5cc(F)ccc5OC(C)(C)[C@H]4O)cc32)C(=N)N1 [Example 46A, (R)-4-(4,4-diethyl-2-imino-6-oxotetrahydropyrimidin-1(2H)-yl)-N-((3S,4R)-6-fluoro-3-hydroxy-2,2-dimethylchroman-4-yl)-2,2-dimethylchromane-6-carboxamide] was run?
**A.** 6.89

**Q.** CCC1(CC)CC(=O)N([C@@H]2CC(C)(C)Oc3ccc(C(=O)N[C@@H]4c5cc(F)ccc5OC(C)(C)[C@H]4O)cc32)C(=N)N1 [Example 53A, (R)-4-(4,4-diethyl-2-imino-6-oxotetrahydropyrimidin-1(2H)-yl)-N-((3S,4R)-6-fluoro-3-hydroxy-2,2-dimethylchroman-4-yl)-2,2-dimethylchromane-6-carboxamide] was tested. Which pEC50 did it give?
**A.** 9.52

**Q.** How did the pEC50 turn out when CC1(C)CC(=O)N([C@@H]2CC(C)(C)Oc3ccc(C(=O)N[C@@H]4c5ccccc5OC[C@H]4O)cc32)C(=N)N1 [Example 56A, (R)-N-((3S,4R)-3-hydroxychroman-4-yl)-4-(2-imino-4,4-dimethyl-6-oxotetrahydropyrimidin-1(2H)-yl)-2,2-dimethylchromane-6-carboxamide] was run?
**A.** 7.57

**Q.** How did the pEC50 turn out when CCC1(CC)C[C@@H](N2C(=N)NC(C)(C)CC2=O)c2cc(C(=O)N[C@@H]3c4ccccc4OC[C@H]3O)ccc2O1 [Example 57A, (R)-2,2-diethyl-N-((3S,4R)-3-hydroxychroman-4-yl)-4-(2-imino-4,4-dimethyl-6-oxotetrahydropyrimidin-1(2H)-yl)chromane-6-carboxamide] was run?
**A.** 7.74

Same assay, conditions: Plasmodium falciparum, Erythrocyte, 72 h, 0.7% rings, 2% haematocrit, 72 hours at 37° C., LDH readout of parasite growth

**Q.** With CCC1(CC)CC(=O)N([C@@H]2CC(C)(C)Oc3ccc(C(=O)N[C@H]4CCOc5ccccc54)cc32)C(=N)N1 [Example 33A, (R)-N-((S)-chroman-4-yl)-4-(4,4-diethyl-2-imino-6-oxotetrahydropyrimidin-1(2H)-yl)-2,2-dimethylchromane-6-carboxamide] as the compound, how does the pEC50 read?
**A.** 7.55

**Q.** How did the pEC50 turn out when CCC1(CC)CC(=O)N([C@@H]2CC(C)(C)Oc3ccc(C(=O)N[C@@H]4c5ccccc5OC(C)(C)[C@H]4O)cc32)C(=N)N1 [Example 34A, (R)-4-(4,4-diethyl-2-imino-6-oxotetrahydropyrimidin-1(2H)-yl)-N-((3S,4R)-3-hydroxy-2,2-dimethylchroman-4-yl)-2,2-dimethylchromane-6-carboxamide] was run?
**A.** 8.92

**Q.** CCC1(CC)CC(=O)N([C@@H]2CC(C)(C)Oc3ccc(C(=O)N[C@@H]4c5ccccc5C[C@H]4O)cc32)C(=N)N1 [Example 35A, (R)-4-(4,4-diethyl-2-imino-6-oxotetrahydropyrimidin-1(2H)-yl)-N-((lR,2R)-2-hydroxy-2,3-dihydro-1H-inden-1-yl)-2,2-dimethylchromane-6-carboxamide] was tested. Which pEC50 did it give?
**A.** 8.62

**Q.** With CCC1(CC)CC(=O)N([C@@H]2CC(C)(C)Oc3ccc(C(=O)N[C@@H]4c5ccccc5OC[C@@H]4O)cc32)C(=N)N1 [Example 36A, (R)-4-(4,4-diethyl-2-imino-6-oxotetrahydropyrimidin-1(2H)-yl)-N-((3R,4R)-3-hydroxychroman-4-yl)-2,2-dimethylchromane-6-carboxamide] as the compound, how does the pEC50 read?
**A.** 8.05

**Q.** How did the pEC50 turn out when CCC1(CC)CC(=O)N([C@@H]2CC(C)(C)Oc3ccc(C(=O)N[C@@H]4c5ccccc5OC[C@H]4O)cc32)C(=N)N1 [Example 36B, (R)-4-(4,4-diethyl-2-imino-6-oxotetrahydropyrimidin-1(2H)-yl)-N-((3 S,4R)-3-hydroxychroman-4-yl)-2,2-dimethylchromane-6-carboxamide] was run?
**A.** 8.66

**Q.** With CC(C)[C@]1(C)CC(=O)N([C@@H]2CC(C)(C)Oc3ccc(C(=O)N[C@H]4CCOc5ccccc54)cc32)C(=N)N1 [Example 37A, (R)-N-((S)-chroman-4-yl)-4-((S)-2-imino-4-isopropyl-4-methyl-6-oxotetrahydropyrimidin-1(2H)-yl)-2,2-dimethylchromane-6-carboxamide] as the compound, how does the pEC50 read?
**A.** 7.13

**Q.** How did the pEC50 turn out when CC(C)[C@]1(C)CC(=O)N([C@@H]2CC(C)(C)Oc3ccc(C(=O)N[C@@H]4c5ccccc5OC(C)(C)[C@H]4O)cc32)C(=N)N1 [Example 38A, (R)-N-((3 S,4R)-3-hydroxy-2,2-dimethylchroman-4-yl)-4-((S)-2-imino-4-isopropyl-4-methyl-6-oxotetrahydropyrimidin-1(2H)-yl)-2,2-dimethylchromane-6-carboxamide] was run?
**A.** 8.55

**Q.** How did the pEC50 turn out when CC(C)[C@]1(C)CC(=O)N([C@@H]2CC(C)(C)Oc3ccc(C(=O)N[C@@H]4c5ccccc5C[C@H]4O)cc32)C(=N)N1 [Example 39A, (R)-N-((1R,2R)-2-hydroxy-2,3-dihydro-1H-inden-l-yl)-4-((S)-2-imino-4-isopropyl-4-methyl-6-oxotetrahydropyrimidin-1(2H)-yl)-2,2-dimethylchromane-6-carboxamide] was run?
**A.** 7.52

**Q.** With CC(C)[C@]1(C)CC(=O)N([C@@H]2CC(C)(C)Oc3ccc(C(=O)N[C@@H]4c5cc(F)ccc5OC(C)(C)[C@H]4O)cc32)C(=N)N1 [Example 41A, (R)-N-((3 S,4R)-6-fluoro-3-hydroxy-2,2-dimethylchroman-4-yl)-4-((S)-2-imino-4-isopropyl-4-methyl-6-oxotetrahydropyrimidin-1(2H)-yl)-2,2-dimethylchromane-6-carboxamide] as the compound, how does the pEC50 read?
**A.** 8.55

**Q.** How did the pEC50 turn out when CC1(C)CC(=O)N([C@@H]2CC(C)(C)Oc3ccc(C(=O)N[C@@H]4c5ccccc5OC(C)(C)[C@H]4O)cc32)C(=N)N1 [Example 47A, (R)-N-((3S,4R)-3-hydroxy-2,2-dimethylchroman-4-yl)-4-(2-imino-4,4-dimethyl-6-oxotetrahydropyrimidin-1(2H)-yl)-2,2-dimethylchromane-6-carboxamide] was run?
**A.** 8.33

**Q.** With CC1(C)CC(=O)N([C@@H]2CC(C)(C)Oc3ccc(C(=O)N[C@@H]4c5ccccc5C[C@H]4O)cc32)C(=N)N1 [Example 48A, (R)-N-((lR,2R)-2-hydroxy-2,3-dihydro-1H-inden-l-yl)-4-(2-imino-4,4-dimethyl-6-oxotetrahydropyrimidin-1(2H)-yl)-2,2-dimethylchromane-6-carboxamide] as the compound, how does the pEC50 read?
**A.** 7.43

**Q.** With CC1(C)CC(=O)N([C@@H]2CC(C)(C)Oc3ccc(C(=O)N[C@@H]4c5ccccc5OC[C@H]4O)cc32)C(=N)N1 [Example 49A, (R)-N-((3S,4R)-3-hydroxychroman-4-yl)-4-(2-imino-4,4-dimethyl-6-oxotetrahydropyrimidin-1(2H)-yl)-2,2-dimethylchromane-6-carboxamide] as the compound, how does the pEC50 read?
**A.** 7.31

**Q.** How did the pEC50 turn out when CCC1(CC)C[C@@H](N2C(=N)NC(C)(C)CC2=O)c2cc(C(=O)N[C@@H]3c4ccccc4OC(C)(C)[C@H]3O)ccc2O1 [Example 50A, (R)-2,2-diethyl-N-((3S,4R)-3-hydroxy-2,2-dimethylchroman-4-yl)-4-(2-imino-4,4-dimethyl-6-oxotetrahydropyrimidin-1(2H)-yl)chromane-6-carboxamide] was run?
**A.** 8.43

**Q.** With CCC1(CC)C[C@@H](N2C(=N)NC(C)(C)CC2=O)c2cc(C(=O)N[C@@H]3c4ccccc4C[C@H]3O)ccc2O1 [Example 51A, (R)-2,2-diethyl-N-((1R,2R)-2-hydroxy-2,3-dihydro-1H-inden-l-yl)-4-(2-imino-4,4-dimethyl-6-oxotetrahydropyrimidin-1(2H)-yl)chromane-6-carboxamide] as the compound, how does the pEC50 read?
**A.** 7.65

**Q.** With CCC1(CC)C[C@@H](N2C(=N)NC(C)(C)CC2=O)c2cc(C(=O)N[C@@H]3c4ccccc4OC[C@H]3O)ccc2O1 [Example 52A, (R)-2,2-diethyl-N-((3S,4R)-3-hydroxychroman-4-yl)-4-(2-imino-4,4-dimethyl-6-oxotetrahydropyrimidin-1(2H)-yl)chromane-6-carboxamide] as the compound, how does the pEC50 read?
**A.** 7.84

**Q.** CC1(C)CC(=O)N([C@@H]2CC(C)(C)Oc3ccc(C(=O)N[C@H]4c5cc(F)ccc5OC(C)(C)[C@@H]4O)cc32)C(=N)N1 [Example 58A, (R)-N-((3R,4S)-6-fluoro-3-hydroxy-2,2-dimethylchroman-4-yl)-4-(2-imino-4,4-dimethyl-6-oxotetrahydropyrimidin-1(2H)-yl)-2,2-dimethylchromane-6-carboxamide] was tested. Which pEC50 did it give?
**A.** 6.60

**Q.** How did the pEC50 turn out when CC1(C)CC(=O)N([C@@H]2CC(C)(C)Oc3ccc(C(=O)N[C@@H]4c5cc(F)ccc5OC(C)(C)[C@H]4O)cc32)C(=N)N1 [Example 58B, (R)-N-((3S,4R)-6-fluoro-3-hydroxy-2,2-dimethylchroman-4-yl)-4-(2-imino-4,4-dimethyl-6-oxotetrahydropyrimidin-1(2H)-yl)-2,2-dimethylchromane-6-carboxamide] was run?
**A.** 8.42

**Q.** CCC1(CC)C[C@@H](N2C(=N)NC(C)(C)CC2=O)c2cc(C(=O)N[C@H]3c4cc(F)ccc4OC(C)(C)[C@@H]3O)ccc2O1 [Example 59A, (R)-2,2-diethyl-N-((3R,4S)-6-fluoro-3-hydroxy-2,2-dimethylchroman-4-yl)-4-(2-imino-4,4-dimethyl-6-oxotetrahydropyrimidin-yl)chromane-6-carboxamide] was tested. Which pEC50 did it give?
**A.** 6.68

**Q.** How did the pEC50 turn out when CCC1(CC)C[C@@H](N2C(=N)NC(C)(C)CC2=O)c2cc(C(=O)N[C@@H]3c4cc(F)ccc4OC(C)(C)[C@H]3O)ccc2O1 [Example 59B, (R)-2,2-diethyl-N-((3S,4R)-6-fluoro-3-hydroxy-2,2-dimethylchroman-4-yl)-4-(2-imino-4,4-dimethyl-6-oxotetrahydropyrimidin-1(2H)-yl)chromane-6-carboxamide] was run?
**A.** 8.80
